How the values were obtained:
[1] = test system: shock-induced suppression of exploratory locomotor behavior; experiment: Mouse activity suppression test (MAST); type: in vivo; conditions: fasted female white mice, dosed orally, 0.2 ma shock for 2.0 seconds per crossing; for ED20: Mus musculus, po
From the text: (§1) Standard procedures for detecting and comparing the tranquilizer, muscle-relaxant, and sedative activity of compounds in this series for which there is a correlation with human efficacy are the following: pinna reflex tests, prehensile traction reflex tests, a muscle relaxant (anti-Straub tail) test, an antipentylenetetrazole test, and a mouse activity supression test (MAST).
MOUSE ACTIVITY S[…] (MAST)
The mouse activity s[…] (MAST) is a model system designed to detect compounds with possible antianxiety activity in humans. […] The punishment, an electric shock applied through the mouse's paws, quickly extinguishes normal behavior.
The test procedure is modified from Boissier, et al., European J. Pharm., 4, 145-151 (1968). Female white mice, fasted 16-22 hours, are randomly distributed to fiberglass holding boxes. Mice in groups of 10-20 are dosed orally and returned to their holding boxes until test time. Test drug suspensions or solutions are prepared by sonication in 1% Methocel®. Typical dose ranges include 0.5, 1, 2, and 4 mg/kg of 1, 3, 9, 27, 81 mg/kg plus a vehicle control and are selected to include one dose at which an effect such as sedation, stimulation, muscle weakness or analgesia was seen.
The test apparatus is an opaque, black plastic box with a clear lid and a stainless steel grid floor. The floor of the test box is marked off into four squares of equal size.
After dosing, a mouse is gently placed in one corner of the testing box and during the next minute each time the mouse makes a full crossing from one square section of the box to another the floor is electrified with 0.2 ma current for 2.0 seconds.
The number of shocks received by each mouse is recorded and the mean number of shocks/dose (X) is determined. When X drug at any dose is statistically greater than X controls (Kruskal-Wallis test in S. Siegel^1), antagonism of suppression obtains and the drug is presumed to have antianxiety activity.
^1 S. Siegel: Non-parametric Statistics for Behavioral Sciences, pp. 184-194, McGraw-Hill (1956).
(§2) Potency in the antipentylenetetrazole (PTZ) and the MAST indicates a potent antianxiety agent. Great potency for blockade of the mouse auditory pinna reflex with little or no effect on tactile pinna reflex is characteristic of minor tranquilizers. Centrally acting skeletal muscle relaxants profoundly affect the lift reflex with little effect on the grip reflex.
(§3) The following table includes the results of these tests conducted with the compounds of this invention; it also includes the results for diazepam and chlordiazepoxide, two well-known benzodiazepines widely-used commercially as tranquilizers.

[2] = test system: morphine-induced Straub tail; experiment: Muscle relaxant (anti-Straub tail) test; type: in vivo, mouse; conditions: fasted female white mice, intubated (oral), morphine sulfate 53.7 mg/kg s.c. at 25 min, observed 30 min after test drug; for ED50: Mus musculus, 0.5 h
From the text: as §1
MUSCLE RELAXANT (ANTI-STRAUB TAIL) TEST
Fasted female white mice, 5 per dose are intubated with test drug. Twenty-five minutes later morphine sulfate is given subcutaneously at 53.7 mg/kg. Thirty minutes after test drug the mice are observed for presence of Straub tail. Quantal ED50 values for blockade of morphine-induced Straub tail are calculated.
as §2, §3

lift reflex = experiment: Prehensile traction test, lift reflex; type: in vivo; conditions: loss of lift reflex; for ED50: mouse, read-out: Mouse ED50, Prehensile Reflexes, Lift
From the text: as §1, with “prehensile traction” left out
(§4) The mouse is gently swung by the tail toward a horizontal 12 gauge wire tautly stretched 25 cm above the bench. After the mouse grasps the wire with its forepaws, its posterior end is held directly below the wire. A normal mouse grasps the wire with its forepaws and immediately lifts its hind limbs to the wire. Failure to grasp the wire with the forepaws in one of 2 trials constitutes loss of the grip reflex; failure to lift the hind limbs to grasps the wire with at least one hind paw within 5 seconds constitutes loss of the lift reflex.
as §2, §3

[3] = test system: pentylenetetrazole (PTZ) clonic convulsions; experiment: Antipentylenetetrazole (PTZ) test; type: in vivo, mouse; conditions: fasted female white mice, intubated (oral), PTZ 40 mg/kg i.v. 30 min later; for ED50: Mus musculus, 0.5 h
From the text: as §1
ANTIPENTYLENETETRAZOLE (PTZ) TEST
Fasted female white mice, 10 per dose are intubated with drug in vehicle as above at doses such as 0, 1, 3, 9, 27 and 81 mg/kg. Thirty minutes later the mice are dosed intravenously with PTZ (Metrazol®^1) at 40 mg/kg (ED98 for clonic convulsions). Dosed animals which remain on a 4"×4" platform for 20 seconds are considered protected. Quantal ED50's are calculated by the moving average method.
^1 Original brand of pentylenetetrazole; sterile 10% aqueous solution for parenteral injection, Knoll Pharmaceutical Company.
as §2, §3

grip reflex = experiment: Prehensile traction test, grip reflex; type: in vivo; conditions: loss of grip reflex; for ED50: mouse, read-out: Mouse ED50, Prehensile Reflexes, Grip
From the text: as §1, with “prehensile traction” left out
as §4, §2, §3

tactile pinna reflex = experiment: Tactile Pinna Reflex test (loss of tactile pinna reflex); type: in vivo, mouse; conditions: fasted female white mice, intubated (oral), tested at 0.5, 2, 5 and 24 hours; for ED50: Mus musculus, read-out: Mouse ED50, Pinna Reflexes, Tactile
Description: as §1
(§5) Fasted female white mice, 5 per dose are intubated with drug at 4, 12, 36, 108 and 324 mg/kg in 1% Methocel®-1.25% Tween 80®, at 10 ml/kg. The auditory and tactile pinna are tested at 0.5, 2, 5 and 24 hours.
The mouse is held by the tail and the hairs inside the right ear are touched by the fine wire stylus from a 27 gauge needle. Failure of the mouse to twitch or move the head constitutes loss of the tactile pinna reflex.
as §2, §3

auditory pinna reflex = experiment: Auditory Pinna Reflex test (loss of auditory pinna reflex); type: in vivo, mouse; conditions: fasted female white mice, intubated (oral), tested at 0.5, 2, 5 and 24 hours; for ED50: Mus musculus, read-out: Mouse ED50, Pinna Reflexes, Auditory
Description: as §1, §5
The mouse is placed on a horizontal bar 9 cm from a Galton whistle adjusted for 13 Kc. Failure to flatten the ears during one or two short bursts of sound constitutes loss of auditory pinna reflex.
as §2, §3

Compound	Mast ED20% [1]	Mouse ED50, Muscle Relaxant [2]	Mouse ED50, Prehensile Reflexes, Lift (lift reflex)	Mouse ED50, PTZ [3]	Mouse ED50, Prehensile Reflexes, Grip (grip reflex)	Mouse ED50, Pinna Reflexes, Tactile (tactile pinna reflex)	Mouse ED50, Pinna Reflexes, Auditory (auditory pinna reflex)	ED20 [1]	ED50 [2]	ED50 (lift reflex)	ED50 [3]	ED50 (grip reflex)	ED50 (tactile pinna reflex)	ED50 (auditory pinna reflex)
5-Chloro-2-(N-methyl-N-chlorofluoroacetamido)benzophenone anti-Oxime [(I)]	3.5	5.8	36.	4.5	70.	360.	23.							
CN1C(=O)C(F)[N+]([O-])=C(c2ccccc2)c2cc(Cl)ccc21 (stereo not shown) [(II), 7-Chloro-3-fluoro-1,3-dihydro-1-methyl-5-phenyl-2H-1,4-benzodiazepin-2-one 4-Oxide]								0.35 mg/kg	1.7 mg/kg	62 mg/kg	3.9 mg/kg	> 450 mg/kg	> 450 mg/kg	62 mg/kg
CNC1=Nc2ccc(Cl)cc2C(c2ccccc2)=[N+]([O-])C1 [Chlordiazepoxide]								1.9 mg/kg	1.9 mg/kg	11 mg/kg	4.5 mg/kg	232 mg/kg	209 mg/kg	17 mg/kg
CN1C(=O)CN=C(c2ccccc2)c2cc(Cl)ccc21 [Diazepam]								0.45 mg/kg	0.25 mg/kg	6 mg/kg	1.3 mg/kg	97 mg/kg	109 mg/kg	4 mg/kg
